Laboratory results reported in patent publication US11147884B2, “Inhibitors of NHE-mediated antiport” (Ardelyx, Inc., priority 2017, dated 2021).

Legend:
[1] = tested on: human ileum monolayer culture; assay: Transepithelial electrical resistance (TEER) in human ileum organoid monolayer cultures; assay type: cell-based; conditions: for TEER compared with control: 3 μM, vs DMSO (FIG. 1D)
Procedure: Each human ileum monolayer culture well was washed twice with fresh SBM on the apical side on day 6 before compound dosing. All compound stocks were 10 mM dissolved in DMSO. Each compound stock was individually mixed with fresh SBM to reach final compound concentration and dosed only on the apical side of the monolayer (total volume 200 μl). DMSO at the equivalent concentration was used as the vehicle control. Duplicate wells were dosed for each compound. Transepithelial electrical resistance (TEER) was used as a quantitative technique to measure of tight junction permeability. TEER values were recorded using a volt/ohm meter (MERS00002, Millipore) before and after dosing for all wells. Each of the duplicate TEER values following treatment were corrected for the individual well baseline TEER. Baseline corrected TEER for each example compound was compared to the average of the DMSO wells and expressed as a percent TEER of vehicle control. Intracellular pH was measured in human ileum stem cells grown as monolayers on 96 well Transwell plates cells incubated with 10 μM of pH sensitive dye BCECF-AM (Life Technologies, cat# B1150) for 30 min at 37° C., 5% CO2 in Na-containing buffer (120 mM NaCl, 10 mM HEPES, 10 mM glucose, 5 mM KCl, 2 mM CaCl2, 1 mM MgCl2, pH 7.4). After 30 min the dye was aspirated and cells were washed twice with Na-containing buffer.
Fluorescent readings were acquired every 5 minutes for a period of 30 minutes on a Flexstation microplate reader at dual excitation wavelengths of 495 nm and 439 nm and emission wavelength of 538 nm (Molecular Devices). The fluorescent ratio for pH indication was calculated from ratio of the two excitation wavelengths (495/439 nm).

[2] = tested on: human ileum stem cells grown as monolayers; assay: Intracellular pH (BCECF-AM) in human ileum monolayers; assay type: cell-based; conditions: human ileum monolayer
[3] = target: T1, NHE3 (Homo sapiens, UniProt P48764); assay: NHE3 activity in enterocytes by intracellular pH recovery following acid loading; assay type: cell-based
T1 construct: the increase in NHE3 expression after differentiation; endogenous in cells; host or cells: enterocytes (differentiated human ileum organoid monolayer cultures)
T1 sequence (P48764 26-834): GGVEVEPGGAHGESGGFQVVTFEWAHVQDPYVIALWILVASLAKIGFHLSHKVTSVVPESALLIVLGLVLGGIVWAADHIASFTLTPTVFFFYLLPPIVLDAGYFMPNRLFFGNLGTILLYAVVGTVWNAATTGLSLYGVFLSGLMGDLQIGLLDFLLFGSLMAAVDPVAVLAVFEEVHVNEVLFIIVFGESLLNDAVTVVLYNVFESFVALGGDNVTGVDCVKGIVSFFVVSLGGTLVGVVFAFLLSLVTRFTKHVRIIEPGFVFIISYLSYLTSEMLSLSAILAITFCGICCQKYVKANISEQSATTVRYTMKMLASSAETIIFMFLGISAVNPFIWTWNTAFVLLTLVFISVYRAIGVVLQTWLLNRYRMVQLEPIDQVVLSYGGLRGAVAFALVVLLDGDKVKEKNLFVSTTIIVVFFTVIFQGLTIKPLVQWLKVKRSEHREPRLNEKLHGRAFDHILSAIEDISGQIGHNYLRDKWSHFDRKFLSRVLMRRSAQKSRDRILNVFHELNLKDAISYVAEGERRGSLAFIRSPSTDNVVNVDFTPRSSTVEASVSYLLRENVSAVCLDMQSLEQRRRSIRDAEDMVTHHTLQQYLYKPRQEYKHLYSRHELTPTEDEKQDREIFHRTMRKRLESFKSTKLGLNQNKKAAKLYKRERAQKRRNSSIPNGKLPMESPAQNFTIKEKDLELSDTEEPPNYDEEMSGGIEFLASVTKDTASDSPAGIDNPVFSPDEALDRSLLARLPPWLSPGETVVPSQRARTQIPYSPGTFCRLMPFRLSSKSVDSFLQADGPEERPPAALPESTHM
Procedure: Known NHE3 inhibitor Tenapanor, as well as non NHE3 inhibitors nigericin, BAM15, FCCP, or DMSO control, were diluted into Na-containing buffer and added to the apical compartment of the Transwell. Fluorescent readings were acquired every 5 minutes for a period of 30 minutes on a Flexstation microplate reader at dual excitation wavelengths of 495 nm and 439 nm and emission wavelength of 538 nm (Molecular Devices). The fluorescent ratio for pH indication was calculated from ratio of the two excitation wavelengths (495/439 nm).

[4] = tested on: mice; assay: Gastrointestinal transit (Evans Blue dye front) in opioid induced constipation model; assay type: in vivo; conditions: oral vehicle, subcutaneous loperamide (0.3 to 6 mg/kg); 30-minute period; vehicle/vehicle approximately 70%
Procedure: Gastrointestinal transit is measured in mice treated with the peripherally acting μ-opioid agonist loperamide to assess the ability of selected example compounds to restore gastrointestinal motility in a model of opioid induced constipation. Approximately eight-week old, female, CD 1 rats are purchased from Envigo (Livermore, Calif.), are housed 4 per cage and acclimated for at least 48 hours before study initiation. Animals are fed standard laboratory rodent chow Harlan Teklad Global 2018 (Maddison, Wis.). […] 30 minutes later, animals are euthanized by carbon dioxide inhalation, and the length from the pylorus to cecum (whole length of the small intestine) and the length from the pylorus to the Evans Blue dye front are measured and recorded. For an individual animal, the length travelled by the Evans Blue dye front is divided by the length of the whole small intestine, measured from the pylorus to the cecum, and multiplied by 100, to provide the distance of the small intestine travelled by the dye as a percentage. […] The effect of example compounds on GIT motility in the presence of loperamide is calculated as the ability to restore vehicle/vehicle transit distance from the vehicle/loperamide transit, expressed as a percentage.

| Molecule | TEER compared with control [1] | intracellular pH compared with control ([2]; 3 μM, vs DMSO (FIG. 1C)) | inhibition of NHE3 activity in enterocytes [3] | also measured |
| --- | --- | --- | --- | --- |
| CN1Cc2c(Cl)cc(Cl)cc2[C@H](c2cccc(S(=O)(=O)NCCOCCOCCNC(=O)NCCCCNC(=O)NCCOCCOCCNS(=O)(=O)c3cccc([C@@H]4CN(C)Cc5c(Cl)cc(Cl)cc54)c3)c2)C1 [tenapanor] | – | – | – | TEER relative to control ([1]; apical dosing, vs DMSO (FIG. 1B)): increase in TEER relative to control |
| Fc1ccccc1Nc1nc2nonc2nc1Nc1ccccc1F [BAM15] | increased TEER compared with control | decrease intracellular pH | neither nigericin, BAM15 nor FCCP inhibited NHE3 activity | – |
| CN(C)C(=O)C(CCN1CCC(O)(c2ccc(Cl)cc2)CC1)(c1ccccc1)c1ccccc1 [loperamide] | – | – | – | length of the small intestine travelled by Evans Blue dye front [4]: ~25% |
| FCCP | increased TEER compared with control | decrease intracellular pH | – | – |
| CO[C@@H]1C[C@@H](C[C@H]2CC[C@H](C)[C@H]([C@@H](C)C(=O)O)O2)O[C@]2(O[C@](C)([C@H]3CC[C@@](C)([C@@H]4O[C@@H]([C@H]5O[C@@](O)(CO)[C@H](C)C[C@@H]5C)C[C@@H]4C)O3)C[C@H]2C)[C@@H]1C [nigericin] | – | – | neither nigericin, BAM15 nor FCCP inhibited NHE3 activity | intracellular pH compared with control ([2]; apical dosing, vs DMSO (FIG. 1A)): reduced intracellular pH compared with control |
